# Source: ChEMBL document CHEMBL1857833, “Screening and optimization of specific chemical series against human African Trypanosomiasis (HAT)”
# Legend:
# Trypanosoma brucei = assay: DNDI: Inhibition of Human African Trypanosomiasis, SBRI 427, in vitro; format: functional, organism-based; settings: Trypanosoma brucei, SBRI 427; read-out: IC50
# [1] = mouse, microsomes, 1 µM
# Description: DNDI: in vitro intrinsic clearance in mouse liver microsomes at a concentration of 1uM
# [2] = DNDI: Cytotoxicity against L929 mouse fibroblasts, 72 hour.; format: toxicity, cell-based; settings: mouse, L929 mouse fibroblasts
# in vitro = settings: mouse, liver microsomes, t (1 / 2)
# Description: DNDI: half life in mouse liver microsomes at a concentration of 1uM
# [3] = DNDI: Solubility in phosphate buffered saline at pH7.4 measured by nephelometry at room temperature (NEPH-RT); format: physicochemical; settings: pH 7.4
# [4] = DNDI: Cytotoxicity against L929 mouse fibroblasts, CYTO-SP, 24 hour; format: toxicity, cell-based; settings: mouse, L929 mouse fibroblasts
# [5] = DNDI: Lipophilicity measured in Chromatographic hydrophobicity index (CHI) assay, pH 7.4; format: physicochemical; settings: buffer
SMILES,IC50 (Trypanosoma brucei),CLint in vitro [1],half-life at 1 µM (in vitro),solubility kinetic [3],chromatographic logD [5],IC50 at 72 h [2],IC50 at 24 h [4]
Cc1ccc(CNC(c2ccccc2)c2nc(Cc3ccccc3)c(N3CCOCC3)o2)cc1 (stereo unspecified),4.86 µg/mL,–,–,6 µM,–,> 10 µg/mL,–
CCc1ccccc1N/C(=N\O)c1ccc(OC)cc1,> 5 µg/mL,397 µL/min/mg,2 min,–,–,–,> 50 µg/mL
COc1ccc(/C(=N/O)Nc2cccc(C#N)c2)cc1,> 5 µg/mL,–,–,50 µM,2.41,> 10 µg/mL,–
Cc1cccc(C)c1/C(=N/O)NC1CCCCC1,> 5 µg/mL,76 µL/min/mg,11 min,–,–,–,> 50 µg/mL
CC(C)(C)c1ccc(Oc2ncccc2/C(=N/O)NC2CCCCC2)cc1,0.07 µg/mL,95 µL/min/mg,9 min,13 µM,–,> 10 µg/mL,–
COc1ccccc1CNC(c1nc(-c2ccccc2)c(N2CCOCC2)o1)C1CC1 (stereo unspecified),5 µg/mL,300 µL/min/mg,3 min,–,–,> 10 µg/mL,–
Cc1ccc(CNC(c2nc(Cc3ccccc3)c(N3CCOCC3)o2)C2CCCCC2)cc1 (stereo unspecified),2.45 µg/mL,236 µL/min/mg,4 min,3 µM,–,> 10 µg/mL,–
COc1ccc(N/C(=N/O)c2ccccc2-c2ccccc2)cc1,> 5 µg/mL,166 µL/min/mg,5 min,–,–,–,> 50 µg/mL
CCc1ccccc1/C(=N\O)NC1CCCCC1,3.58 µg/mL,128 µL/min/mg,7 min,–,–,–,> 50 µg/mL
COc1ccc(N/C(=N/O)c2ccc(OC)cc2)cc1,> 5 µg/mL,376 µL/min/mg,2 min,–,–,–,> 50 µg/mL
CCC(C)C1C(=O)CC(=O)N1C(=O)OC(C)(C)C (stereo unspecified),> 5 µg/mL,–,–,> 200 µM,4.54,> 10 µg/mL,–

# Further lines, with some results ahead:
IC50 (Trypanosoma brucei),CLint in vitro [1],half-life at 1 µM (in vitro),solubility kinetic [3],chromatographic logD [5],SMILES,IC50 at 72 h [2],IC50 at 24 h [4]
2.22 µg/mL,31 µL/min/mg,27 min,–,–,CCCCc1ccc(-c2nc(CN3CCN(C)CC3)co2)cc1,3.75 µg/mL,–
0.3 µg/mL,12 µL/min/mg,70 min,–,–,CCCCCC(C)NCc1coc(-c2ccc(Oc3ccc(C)cc3)cc2)n1 (stereo unspecified),1.42 µg/mL,–
0.43 µg/mL,–,–,> 200 µM,3.3,Cc1ccc(-c2nc(CNCCC3CCCN3C)c(C)o2)cc1 (stereo unspecified),7.78 µg/mL,–
3.24 µg/mL,55 µL/min/mg,16 min,–,–,CCCCCC(C)NCc1coc(Cc2ccc(OC)cc2)n1 (stereo unspecified),10 µg/mL,–
0.54 µg/mL,31 µL/min/mg,27 min,–,–,CCCCCC(C)NCc1coc(-c2ccc(OCCC)cc2)n1 (stereo unspecified),< 3.13 µg/mL,27.5 µg/mL
0.39 µg/mL,39 µL/min/mg,22 min,–,–,CCCCCC(C)NCc1coc(-c2ccc(OCCc3ccccc3)cc2)n1 (stereo unspecified),0.72 µg/mL,–
0.31 µg/mL,13 µL/min/mg,64 min,–,–,CCCCCC(C)NCc1coc(-c2ccc(OCc3ccc(C)cc3)cc2)n1 (stereo unspecified),1.27 µg/mL,–
2.61 µg/mL,378 µL/min/mg,2 min,6 µM,–,CCC(C)C(NCc1ccc(C)cc1)c1nc(Cc2ccccc2)c(N2CCOCC2)o1 (stereo unspecified),> 10 µg/mL,–
0.44 µg/mL,13 µL/min/mg,63 min,–,–,CCCCCC(C)NCc1coc(-c2ccc(Oc3ccc(F)cc3)cc2)n1 (stereo unspecified),1.63 µg/mL,–
0.19 µg/mL,12 µL/min/mg,70 min,6 µM,–,CCCCCC(C)NCc1coc(-c2ccc(OCC(C)(C)C)cc2)n1 (stereo unspecified),0.65 µg/mL,–
0.37 µg/mL,11 µL/min/mg,75 min,–,–,CCCCCC(C)NCc1coc(-c2ccc(OCCCC)c(F)c2)n1 (stereo unspecified),0.73 µg/mL,–
0.55 µg/mL,9 µL/min/mg,97 min,1 µM,–,CCCCCC(C)NCc1coc(-c2ccc(OCc3ccccc3)cc2)n1 (stereo unspecified),1.41 µg/mL,–
0.47 µg/mL,21 µL/min/mg,41 min,–,–,CCCCCC(C)NCc1coc(-c2ccc(OCc3ccc(Cl)cc3)cc2)n1 (stereo unspecified),1.67 µg/mL,–
0.25 µg/mL,8 µL/min/mg,101 min,–,–,CCCCCOc1ccc(-c2nc(CNC3CCCCCC3)co2)cc1,< 3.13 µg/mL,29.5 µg/mL
0.6 µg/mL,36 µL/min/mg,24 min,3 µM,–,CCCCCC(C)NCc1coc(-c2ccc(C(C)C)cc2)n1 (stereo unspecified),1.33 µg/mL,–
